# Measurements: patent publication US20040029930A1, “Fungicidal mixtures based on amide compounds” (priority 2000, published 2004)
# Tested on: Plasmopara viticola
# Test: Activity against Peronospora in grape vines caused by Plasmopara viticola (protective spray, potted vines)
# Format: in vivo
# Conditions: individual active ingredient, vine cultivar Müller-Thurgau
# Description: The active ingredients, separately or together, are formulated as a 10% emulsion in a mixture of 63% by weight of cyclohexanone and 27% by weight of emulsifier, and diluted with water to the desired concentration.
# Evaluation is carried out by determining the infected leaf areas in percent. These percentages are converted into efficacies. The efficacy (W) is calculated as follows using Abbot's formula: […]
# α corresponds to the fungal infection of the treated plants in % and β corresponds to the fungal infection of the untreated (control) plants in % An efficacy of 0 means that the infection level of the treated plants corresponds to that of the untreated control plants; an efficacy of 100 means that the treated plants were not infected.
# The expected efficacies of the mixtures of the active ingredients were determined using Colby's formula [R. S. Colby, Weeds 15, 20-22 (1967)] and compared with the observed efficacies.
# E=x+y−x·y/100 Colby's formula
# E expected efficacy, expressed in % of the untreated control, when using the mixture of the active ingredients A and B at the concentrations a and b […]
# X efficacy, expressed in % of the untreated control, when using active ingredient A at a concentration of a […]
# Y efficacy, expressed in % of the untreated control, when using active ingredient B at a concentration of b […]
# Activity Against Peronospora in Grape Vines Caused by Plasmmopara viticola […]
# Leaves of potted vines of the cultivar “Müller-Thurgau” were sprayed to runoff point with an aqueous preparation of active ingredient which had been prepared using a stock solution comprising 10% of active ingredient, 85% of cyclohexanone and 5% of emulsifier. The next day, the undersides of the leaves were inoculated with an aqueous zoospore suspension of Plasmopara viticola. The vines were then placed firstly for 48 hours in a water-vapor-saturated chamber at 24° C. and then for 5 days in a greenhouse at 20-30° C. After this period of time, the plants were again placed in a moist chamber for 16 hours to accelerate the sporangiophore eruption. The extent to which the undersides of the leaves had been infected was then determined visually.
compound,measurement,setting,value
Cc1ccc(-c2c(Cl)nc(C#N)n2S(=O)(=O)N(C)C)cc1 [cyazofamid],Efficacy in % of the untreated control,1 ppm in the spray liquor,73%
same,Efficacy in % of the untreated control,4 ppm in the spray liquor,79%
same,Efficacy in % of the untreated control,8 ppm in the spray liquor,84%
same,Efficacy in % of the untreated control,16 ppm in the spray liquor,89%
